Test results as given in patent publication US12662491B2 (Redona Therapeutics, Inc., priority 2020, dated 2026).

target: T1, Zcchc11 enzyme (Homo sapiens, UniProt Q5TAX3); assay: TUTase assay (Zcchc11 assay, Lin28a-dependent polyuridylation of pre-let-7); type: biochemical; details: Lin28a-dependent Zcchc11 (Z11) TUTase activity; read-out: Potency Lin28a-dep Z11 IC50
T1 construct: made in house; host or cells: HEK293 cells (Zcchc11); E. coli Rosetta II (LIN28A)
T1 sequence (Q5TAX3 212-1420): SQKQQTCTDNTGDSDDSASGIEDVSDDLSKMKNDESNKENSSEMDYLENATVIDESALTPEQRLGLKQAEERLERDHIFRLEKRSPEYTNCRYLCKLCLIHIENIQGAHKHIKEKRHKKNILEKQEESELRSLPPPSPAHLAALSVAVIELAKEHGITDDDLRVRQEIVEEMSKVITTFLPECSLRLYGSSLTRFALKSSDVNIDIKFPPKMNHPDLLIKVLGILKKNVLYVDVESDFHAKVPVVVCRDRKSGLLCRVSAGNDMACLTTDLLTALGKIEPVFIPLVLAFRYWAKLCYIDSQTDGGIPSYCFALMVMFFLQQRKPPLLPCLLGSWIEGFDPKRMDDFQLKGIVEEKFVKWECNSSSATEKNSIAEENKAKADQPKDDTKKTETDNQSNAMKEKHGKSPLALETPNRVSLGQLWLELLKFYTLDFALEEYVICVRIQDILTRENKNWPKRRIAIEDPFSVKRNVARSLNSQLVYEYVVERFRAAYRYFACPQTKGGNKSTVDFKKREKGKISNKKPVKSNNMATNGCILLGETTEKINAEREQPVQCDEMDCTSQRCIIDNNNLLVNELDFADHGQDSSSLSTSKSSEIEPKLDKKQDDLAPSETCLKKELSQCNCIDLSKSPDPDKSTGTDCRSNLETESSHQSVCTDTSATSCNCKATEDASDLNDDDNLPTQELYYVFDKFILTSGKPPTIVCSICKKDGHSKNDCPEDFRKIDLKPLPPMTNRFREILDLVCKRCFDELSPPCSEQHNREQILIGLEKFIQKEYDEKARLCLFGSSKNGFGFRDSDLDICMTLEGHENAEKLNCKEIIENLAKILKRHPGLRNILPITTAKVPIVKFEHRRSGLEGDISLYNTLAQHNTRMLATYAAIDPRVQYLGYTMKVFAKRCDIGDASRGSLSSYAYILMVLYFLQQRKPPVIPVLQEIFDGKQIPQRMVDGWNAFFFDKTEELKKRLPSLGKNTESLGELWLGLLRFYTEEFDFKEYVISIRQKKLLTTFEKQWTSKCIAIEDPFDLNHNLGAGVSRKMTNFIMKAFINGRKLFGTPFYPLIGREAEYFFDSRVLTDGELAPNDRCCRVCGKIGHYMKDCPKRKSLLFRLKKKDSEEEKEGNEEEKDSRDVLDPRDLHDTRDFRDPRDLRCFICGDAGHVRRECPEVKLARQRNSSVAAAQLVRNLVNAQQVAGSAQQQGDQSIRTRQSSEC
Procedure, shortened: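 Potency is measured as inhibition of LIN28A-driven U-tail addition to 2 nM pre-let-7 by 0.2 nM HEK293-derived Zcchc11 fragment with 5 uM UTP at room temperature. Tail growth appears as fluorescein quenching by an annealing rhodamine-A20 probe.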

| IC50 | SMILES |
| --- | --- |
| ≤ 1 µM | O=C(O)c1cn(-c2ccc(O)c(F)c2)c2cc(N3CCC[C@@H]3COc3ncccc3Cl)c(Cl)cc2c1=O [Compound 127, (R)-6-chloro-7-(2-(((3-chloropyridin-2-yl)oxy)methyl)pyrrolidin-1-yl)-1-(3-fluoro-4-hydroxy-phenyl)-4-oxo-1,4-dihydro-quinoline-3-carboxylic acid] |
| 1 to 10 µM | O=C(O)c1cn(-c2ccccc2CO)c2cc(N3CCC[C@@H]3COc3ccccn3)c(F)cc2c1=O [Compound 160, (R)-6-fluoro-1-(2-(hydroxy-methyl)phenyl)-4-oxo-7-(2-((pyridin-2-yloxy)methyl)pyrrolidin-1-yl)-1,4-dihydro-quinoline-3-carboxylic acid] |

same assay, conditions: Lin28a-dependent Zcchc11 (Z11) TUTase assay; read-out: Potency Lin28a-dep Z11 IC50

| IC50 | SMILES |
| --- | --- |
| ≤ 1 µM | O=C(O)c1cn(-c2cnccn2)c2cc(N3CCC[C@@H]3COc3ncccc3Cl)c(Br)cc2c1=O [Example 511, (R)-6-bromo-7-(2-(((3-chloropyridin-2-yl)oxy)methyl)pyrrolidin-1-yl)-4-oxo-1-(pyrazin-2-yl)-1,4-dihydroquinoline-3-carboxylic acid] |
| 1 to 10 µM | CN1CCC(n2cc(C(=O)O)c(=O)c3cc(Cl)c(N4CCC[C@@H]4COc4ncccc4Cl)cc32)CC1 [Example 462, (R)-6-chloro-7-(2-(((3-chloropyridin-2-yl)oxy)methyl)pyrrolidin-1-yl)-1-(1-methyl-piperidin-4-yl)-4-oxo-1,4-dihydro-quinoline-3-carboxylic acid] |
| ≤ 1 µM | CC1(n2cc(C(=O)O)c(=O)c3cc(F)c(N4CCC[C@@H]4COc4ccccn4)cc32)CC1 [Example 361, (R)-6-fluoro-1-(1-methylcyclo-propyl)-4-oxo-7-(2-((pyridin-2-yloxy)methyl)pyrrolidin-1-yl)-1,4-dihydroquinoline-3-carboxylic acid] |
| ≤ 1 µM | CN(C)C1CN(c2ccc(-n3cc(C(=O)O)c(=O)c4cc(Cl)c(N5C[C@H](O)C[C@@H]5COc5ncccc5Cl)cc43)cn2)C1 [Example 602, 6-chloro-7-((2R,4R)-2-(((3-chloroypridin-2-yl)oxy)methyl)-4-hydroxypyrrolidin-1-yl)-1-(6-(3-(dimethylamino)azetidin-1-yl)pyridin-3-yl)-4-oxo-1,4-dihydroquinoline-3-carboxylic acid] |
| ≤ 1 µM | COc1ccnc(OC[C@H]2C[C@H]3C[C@H]3N2c2cc3c(cc2F)c(=O)c(C(=O)O)cn3-c2ccc(N3CC(N(C)C)C3)nc2)c1Cl [Example 673, 7-((1R,3R,5R)-3-(((3-chloro-4-methoxypyridin-2-yl)oxy)methyl)-2-azabicyclo[3.1.0]hexan-2-yl)-1-(6-(3-(dimethylamino)azetidin-1-yl)pyridin-3-yl)-6-fluoro-4-oxo-1,4-dihydroquinoline-3-carboxylic acid] |
| ≤ 1 µM | Cc1cc2c(=O)c(C(=O)O)cn(-c3cnccn3)c2cc1N1CCC[C@@H]1COc1ncccc1Cl [Example 487, (R)-7-(2-(((3-chloropyridin-2-yl)oxy)methyl)pyrrolidin-1-yl)-6-methyl-4-oxo-1-(pyrazin-2-yl)-1,4-dihydroquinoline-3-carboxylic acid] |
| ≤ 1 µM | COc1ccc(Cl)c(OC[C@H]2[C@@H](OC)CCN2c2cc3c(cc2Cl)c(=O)c(C(=O)O)cn3-c2ccc(N3CC(N(C)C)C3)nc2)n1 [Example 684, 6-chloro-7-((2S,3S)-2-(((3-chloro-6-methoxypyridin-2-yl)oxy)methyl)-3-methoxypyrrolidin-1-yl)-1-(6-(3-(dimethylamino)azetidin-1-yl)pyridin-3-yl)-4-oxo-1,4-dihydroquinoline-3-carboxylic acid] |
| ≤ 1 µM | Cc1cccnc1OC[C@H]1CCCN1c1cc2c(cc1F)c(=O)c(C(=O)O)cn2C1(C)CC1 [Example 356, (R)-6-fluoro-1-(1-methylcyclo-propyl)-7-(2-(((3-methylpyridin-2-yl)oxy)methyl)pyrrolidin-1-yl)-4-oxo-1,4-dihydroquinoline-3-carboxylic acid] |
